Measurements reported in US10266569B2 (priority 2014, dated 2019).
“Also recorded” adds a separate entry of the source.

How the values were obtained:
CDV = format: cell-based, canine distemper virus
[1] = system: NiV (Malaysian isolate UMMC1); format: cell-based, Nipah virus
NiV N = NiV N (Nipah virus, UniProt Q9IK92); format: cell-based
[2] = system: NiV (Malaysian isolate UMMC1); format: cell-based, Nipah virus; remark: listed apart in the source

NiV N, sequence (Q9IK92 whole entry, looked up): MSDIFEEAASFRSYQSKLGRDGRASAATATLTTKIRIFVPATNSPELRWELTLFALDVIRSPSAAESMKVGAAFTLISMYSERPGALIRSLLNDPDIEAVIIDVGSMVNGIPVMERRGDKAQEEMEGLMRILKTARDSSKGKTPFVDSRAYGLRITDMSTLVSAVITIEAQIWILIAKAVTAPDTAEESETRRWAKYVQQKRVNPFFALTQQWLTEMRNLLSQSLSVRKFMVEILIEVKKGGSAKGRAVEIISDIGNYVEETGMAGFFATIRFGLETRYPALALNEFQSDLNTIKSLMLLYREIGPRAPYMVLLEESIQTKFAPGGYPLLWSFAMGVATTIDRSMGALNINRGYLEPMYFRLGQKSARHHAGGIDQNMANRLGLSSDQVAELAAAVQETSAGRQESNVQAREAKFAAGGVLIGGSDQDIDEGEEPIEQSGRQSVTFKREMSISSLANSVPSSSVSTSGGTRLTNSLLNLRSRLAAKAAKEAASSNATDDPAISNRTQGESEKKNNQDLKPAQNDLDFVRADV

Sequence	dose dependence of inhibition of CDV replication (CDV)	inhibition of CDV viral growth (virus titer in culture supernatant) (CDV)	inhibition of NiV viral growth (virus titer in culture supernatant) [1]	colocalization with N in the cell (NiV N)	maintenance of N in a soluble form (NiV N)	inhibition of NiV viral growth (viral titer in culture supernatant) [2]	syncytia formation in NiV-infected cells [2]
MAEEQAYHVSKGLECLKALRENPPDIEEIQEVSSLRDQTC [P40-CDV]	dose-dependant						
MDKLELVNDGLNIIDFIQKNQKEIQKTYGRSSIQQPSIKD [P40]	dose-dependant	inhibit viral growth	inhibit viral growth	colocalization of N with P40	sufficient to maintain N in a soluble form	significantly inhibits viral growth in a dose-dependent manner; also recorded: inhibited viral replication; also recorded: able to inhibit the replication of Nipah virus	abolishes syncytia formation
